# Laboratory results from patent US20250034216A1, “STEREOSELECTIVE COVALENT LIGANDS FOR ONCOGENIC AND IMMUNOLOGICAL PROTEINS” (The Scripps Research Institute, priority 2021, published 2025).
# Columns and labels:
# Assay in all cases: IA-DTB cysteine engagement
# Type in all cases: binding
# TMEM256-PLSCR3_C126 = biological target: T1, TMEM256-PLSCR3_C126 (Homo sapiens, UniProt Q9NRY6); conditions: 22Rv1 cells, 20 μM probe, 1 h, relative to DMSO
# T1 construct: endogenous in cells; host or cells: 22Rv1
# How it was run: (§1)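 Probe-exposed cells were lysed, IA-DTB-labeled, trypsinized and streptavidin-enriched. Multiplexed TMT quantitation gave engagement ratios versus DMSO, with non-tryptic peptides excluded and intensities normalized to median summed signal.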
# TOMM70_C214 = biological target: T2, TOMM70_C214 (Homo sapiens, UniProt O94826); conditions: 22Rv1 cells, 20 μM probe, 1 h, relative to DMSO
# T2 construct: endogenous in cells; host or cells: 22Rv1
# T2 sequence (O94826 1-608): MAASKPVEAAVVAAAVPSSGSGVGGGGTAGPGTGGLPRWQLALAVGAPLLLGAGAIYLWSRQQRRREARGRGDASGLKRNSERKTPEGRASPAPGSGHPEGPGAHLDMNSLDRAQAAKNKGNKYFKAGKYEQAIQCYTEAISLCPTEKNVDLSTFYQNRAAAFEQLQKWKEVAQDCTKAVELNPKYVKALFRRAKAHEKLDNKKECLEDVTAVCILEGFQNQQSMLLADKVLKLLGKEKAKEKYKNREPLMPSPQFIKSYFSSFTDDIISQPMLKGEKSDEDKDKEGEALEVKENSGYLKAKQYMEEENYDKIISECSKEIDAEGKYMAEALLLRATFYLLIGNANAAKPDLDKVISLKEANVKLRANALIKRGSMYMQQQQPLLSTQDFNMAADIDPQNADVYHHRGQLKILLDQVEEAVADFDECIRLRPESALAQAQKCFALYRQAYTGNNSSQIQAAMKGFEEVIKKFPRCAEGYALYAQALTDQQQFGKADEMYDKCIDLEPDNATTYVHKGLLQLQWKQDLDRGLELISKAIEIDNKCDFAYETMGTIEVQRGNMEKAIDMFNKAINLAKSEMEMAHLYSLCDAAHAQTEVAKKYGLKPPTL
# How it was run: as §1
# TRPM4_C758 = biological target: T3, TRPM4_C758 (Homo sapiens, UniProt Q8TD43); conditions: 22Rv1 cells, 20 μM probe, 1 h, relative to DMSO
# T3 construct: endogenous in cells; host or cells: 22Rv1
# How it was run: as §1
# LAPTM4A_C23 = biological target: T4, LAPTM4A_C23 (Homo sapiens, UniProt Q15012); conditions: 22Rv1 cells, 20 μM probe, 1 h, relative to DMSO
# T4 construct: endogenous in cells; host or cells: 22Rv1
# How it was run: as §1
# PTGR1_C239 = biological target: T5, PTGR1_C239 (Homo sapiens, UniProt Q14914); conditions: 22Rv1 cells, relative to DMSO; for % engagement PTGR1_C239: 20 μM probe, 1 h; for % engagement PTGR1_239: 5 μM probe, 1 h (FIG. 5B)
# T5 construct: endogenous in cells; host or cells: 22Rv1
# How it was run: as §1
# TTC3_C109 = biological target: T6, TTC3_C109 (Homo sapiens, UniProt P53804); conditions: 22Rv1 cells, 20 μM probe, 1 h, relative to DMSO
# T6 construct: endogenous in cells; host or cells: 22Rv1
# How it was run: as §1
# ZFC3H1_C1778 = biological target: T7, ZFC3H1_C1778 (Homo sapiens, UniProt O60293); conditions: 22Rv1 cells, 20 μM probe, 1 h, relative to DMSO
# T7 construct: endogenous in cells; host or cells: 22Rv1
# How it was run: as §1
# HIRA_C673 = biological target: T8, HIRA_C673 (Homo sapiens, UniProt P54198); conditions: 22Rv1 cells, 20 μM probe, 1 h, relative to DMSO
# T8 construct: endogenous in cells; host or cells: 22Rv1
# How it was run: as §1
# APOOL_C74 = biological target: T9, APOOL_C74 (Homo sapiens, UniProt Q6UXV4); conditions: 22Rv1 cells, 20 μM probe, 1 h, relative to DMSO
# T9 construct: endogenous in cells; host or cells: 22Rv1
# T9 sequence (Q6UXV4 28-268): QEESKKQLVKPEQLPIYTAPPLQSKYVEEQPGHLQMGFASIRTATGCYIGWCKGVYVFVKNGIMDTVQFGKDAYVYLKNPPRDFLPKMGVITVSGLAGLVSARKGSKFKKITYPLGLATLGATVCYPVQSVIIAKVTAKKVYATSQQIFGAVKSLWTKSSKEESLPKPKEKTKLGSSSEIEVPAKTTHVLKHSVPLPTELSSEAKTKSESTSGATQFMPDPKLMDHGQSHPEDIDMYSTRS
# How it was run: as §1
# T8 sequence (P54198 whole entry): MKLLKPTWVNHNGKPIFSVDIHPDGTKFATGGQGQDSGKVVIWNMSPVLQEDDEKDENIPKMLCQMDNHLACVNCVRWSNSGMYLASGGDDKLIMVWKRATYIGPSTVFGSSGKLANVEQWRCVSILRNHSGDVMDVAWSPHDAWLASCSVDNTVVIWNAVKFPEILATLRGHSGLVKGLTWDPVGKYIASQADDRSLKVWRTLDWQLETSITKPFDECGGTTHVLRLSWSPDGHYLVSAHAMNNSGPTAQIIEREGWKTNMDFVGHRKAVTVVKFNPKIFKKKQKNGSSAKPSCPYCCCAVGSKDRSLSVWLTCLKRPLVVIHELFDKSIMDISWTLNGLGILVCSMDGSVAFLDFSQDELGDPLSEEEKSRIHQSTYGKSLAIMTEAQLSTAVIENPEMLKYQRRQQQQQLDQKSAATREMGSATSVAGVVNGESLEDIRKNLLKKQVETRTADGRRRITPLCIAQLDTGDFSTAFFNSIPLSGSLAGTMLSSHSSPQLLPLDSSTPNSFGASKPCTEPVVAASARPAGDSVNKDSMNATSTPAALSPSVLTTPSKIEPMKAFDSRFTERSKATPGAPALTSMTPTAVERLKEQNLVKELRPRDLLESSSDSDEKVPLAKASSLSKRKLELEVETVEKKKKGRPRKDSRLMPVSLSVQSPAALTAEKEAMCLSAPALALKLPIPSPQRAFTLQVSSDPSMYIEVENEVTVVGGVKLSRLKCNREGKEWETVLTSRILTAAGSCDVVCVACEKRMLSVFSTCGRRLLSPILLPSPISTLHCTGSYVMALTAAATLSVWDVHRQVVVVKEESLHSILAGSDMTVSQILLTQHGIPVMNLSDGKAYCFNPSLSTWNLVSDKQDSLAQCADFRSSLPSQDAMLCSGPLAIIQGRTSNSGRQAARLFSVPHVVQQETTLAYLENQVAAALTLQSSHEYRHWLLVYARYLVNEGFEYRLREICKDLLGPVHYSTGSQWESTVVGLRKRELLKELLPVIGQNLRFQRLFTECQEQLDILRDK
# T7 sequence (O60293 whole entry): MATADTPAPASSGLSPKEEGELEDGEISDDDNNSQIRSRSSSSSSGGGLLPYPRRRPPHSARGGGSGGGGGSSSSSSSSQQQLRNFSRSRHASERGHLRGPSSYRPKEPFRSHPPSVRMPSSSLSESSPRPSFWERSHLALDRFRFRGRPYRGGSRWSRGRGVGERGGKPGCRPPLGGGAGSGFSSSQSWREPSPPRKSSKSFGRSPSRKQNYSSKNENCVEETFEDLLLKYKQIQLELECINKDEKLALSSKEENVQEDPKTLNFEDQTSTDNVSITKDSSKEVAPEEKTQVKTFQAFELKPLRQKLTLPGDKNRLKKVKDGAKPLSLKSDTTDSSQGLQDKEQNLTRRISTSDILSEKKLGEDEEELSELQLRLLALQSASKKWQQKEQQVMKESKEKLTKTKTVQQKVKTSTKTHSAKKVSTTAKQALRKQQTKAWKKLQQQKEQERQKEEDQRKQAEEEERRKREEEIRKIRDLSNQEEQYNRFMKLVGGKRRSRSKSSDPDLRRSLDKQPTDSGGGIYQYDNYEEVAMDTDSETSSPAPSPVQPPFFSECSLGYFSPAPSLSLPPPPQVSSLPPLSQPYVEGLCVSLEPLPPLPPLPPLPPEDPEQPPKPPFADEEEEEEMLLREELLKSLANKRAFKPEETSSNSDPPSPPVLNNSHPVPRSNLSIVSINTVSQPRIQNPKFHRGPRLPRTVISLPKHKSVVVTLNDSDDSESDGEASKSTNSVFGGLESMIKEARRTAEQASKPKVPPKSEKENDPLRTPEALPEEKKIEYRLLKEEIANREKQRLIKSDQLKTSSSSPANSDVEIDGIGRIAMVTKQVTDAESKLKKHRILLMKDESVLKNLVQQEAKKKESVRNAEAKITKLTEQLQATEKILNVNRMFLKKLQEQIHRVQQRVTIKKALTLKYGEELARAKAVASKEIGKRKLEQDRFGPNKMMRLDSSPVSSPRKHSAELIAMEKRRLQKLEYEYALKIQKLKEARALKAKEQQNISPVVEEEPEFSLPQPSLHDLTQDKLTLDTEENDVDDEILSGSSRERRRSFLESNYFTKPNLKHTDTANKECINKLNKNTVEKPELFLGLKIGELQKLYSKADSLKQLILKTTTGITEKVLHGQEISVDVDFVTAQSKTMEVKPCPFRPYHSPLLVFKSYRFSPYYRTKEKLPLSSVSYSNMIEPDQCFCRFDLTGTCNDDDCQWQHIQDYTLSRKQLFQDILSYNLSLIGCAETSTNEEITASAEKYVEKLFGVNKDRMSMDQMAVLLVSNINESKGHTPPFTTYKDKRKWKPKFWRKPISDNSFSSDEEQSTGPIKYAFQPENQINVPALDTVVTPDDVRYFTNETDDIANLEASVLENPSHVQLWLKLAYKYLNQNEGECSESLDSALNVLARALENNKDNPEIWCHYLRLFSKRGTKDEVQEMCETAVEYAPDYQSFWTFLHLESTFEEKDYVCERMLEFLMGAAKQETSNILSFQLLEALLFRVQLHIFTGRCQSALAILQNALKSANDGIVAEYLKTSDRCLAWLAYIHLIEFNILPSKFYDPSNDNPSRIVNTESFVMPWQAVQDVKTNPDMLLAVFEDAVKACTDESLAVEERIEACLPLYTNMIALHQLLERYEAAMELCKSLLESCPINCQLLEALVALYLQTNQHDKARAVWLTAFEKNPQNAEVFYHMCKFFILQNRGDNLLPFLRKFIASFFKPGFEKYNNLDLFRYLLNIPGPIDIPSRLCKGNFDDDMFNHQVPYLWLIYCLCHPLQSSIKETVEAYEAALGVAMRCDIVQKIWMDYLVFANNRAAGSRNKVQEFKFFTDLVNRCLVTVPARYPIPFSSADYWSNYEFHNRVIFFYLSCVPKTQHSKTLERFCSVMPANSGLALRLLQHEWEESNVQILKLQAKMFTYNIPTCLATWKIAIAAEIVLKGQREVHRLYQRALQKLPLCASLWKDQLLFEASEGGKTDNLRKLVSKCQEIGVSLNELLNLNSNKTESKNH
# T1 sequence (Q9NRY6 whole entry): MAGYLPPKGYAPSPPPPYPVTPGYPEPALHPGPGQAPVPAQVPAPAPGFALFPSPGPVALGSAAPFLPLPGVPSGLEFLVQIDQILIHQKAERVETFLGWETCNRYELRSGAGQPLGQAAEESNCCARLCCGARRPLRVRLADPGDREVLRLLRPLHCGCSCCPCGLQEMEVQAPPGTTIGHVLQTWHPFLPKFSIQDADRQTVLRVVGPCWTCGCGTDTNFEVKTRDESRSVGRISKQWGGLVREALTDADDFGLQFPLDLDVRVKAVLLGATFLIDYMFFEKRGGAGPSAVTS
# T5 sequence (Q14914 whole entry): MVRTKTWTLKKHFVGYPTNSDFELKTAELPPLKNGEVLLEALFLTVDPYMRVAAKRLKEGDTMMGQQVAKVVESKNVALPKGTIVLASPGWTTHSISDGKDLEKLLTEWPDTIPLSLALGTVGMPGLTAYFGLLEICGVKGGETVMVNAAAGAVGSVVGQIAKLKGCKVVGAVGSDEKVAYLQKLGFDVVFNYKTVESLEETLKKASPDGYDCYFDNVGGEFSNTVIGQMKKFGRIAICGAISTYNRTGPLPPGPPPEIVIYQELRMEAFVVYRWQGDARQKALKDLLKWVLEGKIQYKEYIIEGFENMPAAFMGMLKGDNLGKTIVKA
# T3 sequence (Q8TD43 whole entry): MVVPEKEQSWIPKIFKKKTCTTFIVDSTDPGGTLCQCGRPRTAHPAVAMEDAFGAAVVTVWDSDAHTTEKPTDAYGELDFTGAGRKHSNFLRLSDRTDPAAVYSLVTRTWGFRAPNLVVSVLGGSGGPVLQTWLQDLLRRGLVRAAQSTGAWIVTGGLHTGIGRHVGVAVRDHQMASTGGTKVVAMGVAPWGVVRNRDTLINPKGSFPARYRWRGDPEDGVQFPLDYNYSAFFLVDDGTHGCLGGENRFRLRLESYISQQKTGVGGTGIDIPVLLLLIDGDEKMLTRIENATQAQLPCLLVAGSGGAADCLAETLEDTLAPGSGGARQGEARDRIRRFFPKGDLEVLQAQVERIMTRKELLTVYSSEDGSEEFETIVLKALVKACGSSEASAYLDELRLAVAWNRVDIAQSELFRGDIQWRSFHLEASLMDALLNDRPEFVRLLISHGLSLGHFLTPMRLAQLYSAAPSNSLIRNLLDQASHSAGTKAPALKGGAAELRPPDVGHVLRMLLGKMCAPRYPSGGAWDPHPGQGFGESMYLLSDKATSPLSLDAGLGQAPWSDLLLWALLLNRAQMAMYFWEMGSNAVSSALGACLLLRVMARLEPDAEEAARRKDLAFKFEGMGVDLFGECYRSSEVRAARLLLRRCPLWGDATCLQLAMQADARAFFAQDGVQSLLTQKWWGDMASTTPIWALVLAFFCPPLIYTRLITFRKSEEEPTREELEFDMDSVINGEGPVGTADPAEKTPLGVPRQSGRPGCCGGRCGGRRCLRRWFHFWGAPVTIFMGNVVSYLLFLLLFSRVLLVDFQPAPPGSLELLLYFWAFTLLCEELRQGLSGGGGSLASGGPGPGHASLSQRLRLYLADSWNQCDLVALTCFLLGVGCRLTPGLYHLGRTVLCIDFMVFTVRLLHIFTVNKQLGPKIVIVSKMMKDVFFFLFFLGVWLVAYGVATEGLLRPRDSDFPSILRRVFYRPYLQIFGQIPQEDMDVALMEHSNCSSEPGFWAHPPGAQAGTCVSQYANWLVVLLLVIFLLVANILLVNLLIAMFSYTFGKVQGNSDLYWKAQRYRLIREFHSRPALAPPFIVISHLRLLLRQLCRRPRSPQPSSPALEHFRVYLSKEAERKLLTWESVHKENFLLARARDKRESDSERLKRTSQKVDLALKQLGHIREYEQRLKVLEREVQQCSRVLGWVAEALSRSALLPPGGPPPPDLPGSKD
structure (smiles),measurement,setting,value
"C=CC(=O)N1C[C@@H](c2ccc(Br)cc2)[C@H]1C(=O)Nc1cccc2cccnc12 [MY-1A, (2S,3R)-1-acryloyl-3-(4-bromophenyl)-N-(quinolin-8-yl)azetidine-2-carboxamide]",% engagement TMEM256-PLSCR3_C126,TMEM256-PLSCR3_C126,81%
same,% engagement TOMM70_C214,TOMM70_C214,7.5%
same,% engagement TRPM4_C758,TRPM4_C758,40.5%
same,% engagement LAPTM4A_C23,LAPTM4A_C23,67%
same,% engagement PTGR1_C239,PTGR1_C239,75%
same,% engagement TTC3_C109,TTC3_C109,80.5%
same,% engagement ZFC3H1_C1778,ZFC3H1_C1778,70.75%
same,% engagement HIRA_C673,HIRA_C673,−12%
same,% engagement APOOL_C74,APOOL_C74,52.75%
"C=CC(=O)N1C[C@H](c2ccc(Br)cc2)[C@@H]1C(=O)Nc1cccc2cccnc12 [MY-1B, (2R,3S)-1-acryloyl-3-(4-bromophenyl)-N-(quinolin-8-yl)azetidine-2-carboxamide]",% engagement TMEM256-PLSCR3_C126,TMEM256-PLSCR3_C126,86%
same,% engagement TOMM70_C214,TOMM70_C214,29%
same,% engagement TRPM4_C758,TRPM4_C758,54.5%
same,% engagement LAPTM4A_C23,LAPTM4A_C23,54.5%
same,% engagement PTGR1_239,PTGR1_C239,81.33%
same,% engagement PTGR1_C239,PTGR1_C239,79%
same,% engagement TTC3_C109,TTC3_C109,54.5%
same,% engagement ZFC3H1_C1778,ZFC3H1_C1778,7%
same,% engagement HIRA_C673,HIRA_C673,3%
same,% engagement APOOL_C74,APOOL_C74,64.5%
"C=CC(=O)N1C[C@H](c2ccc(Br)cc2)[C@H]1C(=O)Nc1cccc2cccnc12 [MY-3A, (2S,3S)-1-acryloyl-3-(4-bromophenyl)-N-(quinolin-8-yl)azetidine-2-carboxamide]",% engagement TMEM256-PLSCR3_C126,TMEM256-PLSCR3_C126,58%
same,% engagement TOMM70_C214,TOMM70_C214,30.5%
same,% engagement TRPM4_C758,TRPM4_C758,29.5%
same,% engagement LAPTM4A_C23,LAPTM4A_C23,48%
same,% engagement PTGR1_C239,PTGR1_C239,−4%
same,% engagement TTC3_C109,TTC3_C109,4.5%
same,% engagement ZFC3H1_C1778,ZFC3H1_C1778,47.75%
same,% engagement HIRA_C673,HIRA_C673,11.5%
same,% engagement APOOL_C74,APOOL_C74,52%
"C=CC(=O)N1C[C@H](c2ccc(Br)cc2)[C@H]1C(=O)Nc1cccc2cccnc12 [MY-3B, (2S,3S)-1-acryloyl-3-(4-bromophenyl)-N-(quinolin-8-yl)azetidine-2-carboxamide]",% engagement TMEM256-PLSCR3_C126,TMEM256-PLSCR3_C126,66%
same,% engagement TOMM70_C214,TOMM70_C214,71.5%
same,% engagement TRPM4_C758,TRPM4_C758,73.5%
same,% engagement LAPTM4A_C23,LAPTM4A_C23,72%
same,% engagement PTGR1_C239,PTGR1_C239,−16.5%
same,% engagement TTC3_C109,TTC3_C109,21.5%
same,% engagement ZFC3H1_C1778,ZFC3H1_C1778,−22.75%
same,% engagement HIRA_C673,HIRA_C673,73%
same,% engagement APOOL_C74,APOOL_C74,71.25%
"CC#CC(=O)N1C[C@H](c2ccc(Br)cc2)[C@@H]1C(=O)Nc1cccc2cccnc12 [MY-45B, (2R,3S)-3-(4-bromophenyl)-1-(but-2-ynoyl)-N-(quinolin-8-yl)azetidine-2-carboxamide]",% engagement PTGR1_239,PTGR1_C239,−4.50%
